Test results from EPA's ToxRefDB 2.

Columns and labels:
rat [1] = details: Subchronic oral toxicity in rodents, fischer, Feed, dose end: 13 week, group: systemic
rat [2] = details: Subchronic oral toxicity in rodents, fischer, Feed, dose end: 13 week, group: systemic; remark: listed apart in the source
mouse [3] = details: Multigenerational reproductive toxicity study, cd1, Oral, Feed, dose end: 1 generation
mouse [4] = details: Subchronic oral toxicity in rodents, b6c3f1, Feed, dose end: 13 week, group: systemic
rat [5] = details: Carcinogenicity, sprague dawley, Oral, Gavage/Intubation, dose end: 105 week, group: systemic
rabbit = details: Subchronic dermal toxicity, new zealand white, Topical, dose end: 13 week, group: systemic, systemic / in life observation / clinical signs / desquamation + systemic / in life observation / clinical signs / erythema + systemic / in …
dog [6] = details: Subchronic oral toxicity in nonrodent, beagle, Feed, dose end: 6 month, group: cholinesterase, cholinesterase / cholinesterase / cholinesterase / erythrocyte cholinesterase (che) + cholinesterase / cholinesterase / cholinesterase / …
mouse [7] = details: Combined chronic toxicity/carcinogenicity, cd1, Oral, Feed, dose end: 91 week
mouse [8] = details: Subchronic oral toxicity in rodents, cd1, Feed, dose end: 8 week
dog [9] = details: Chronic toxicity, beagle, Oral, Feed, dose end: 52 week
rat [10] = details: Multigenerational reproductive toxicity study, wistar, Oral, Feed, dose end: 2 generation
rat [11] = details: Combined chronic toxicity/carcinogenicity, sprague dawley, Oral, Feed, dose end: 24 month
[12] = systemic / pathology microscopic / kidney / cytoplasmic alteration + systemic / pathology microscopic / kidney / dilatation + systemic / …
[13] = systemic / pathology microscopic / kidney / regeneration + systemic / urinalysis / aspartate aminotransferase (ast/sgot) / aspartate …
[14] = systemic / pathology microscopic / kidney / dilatation + systemic / pathology microscopic / kidney / hyaline droplet + systemic / pathology …
[15] = systemic / pathology microscopic / kidney / regeneration + systemic / clinical chemistry / thyroxine (t4) / thyroxine (t4), free + systemic…
[16] = group: offspring, systemic / in life observation / body weight / offspring (pup) weight + systemic / in life observation / body weight / offspring (pup) …
[17] = group: parental, systemic / in life observation / body weight / body weight + systemic / in life observation / mortality / mortality + systemic / in life …
[18] = group: reproductive, reproductive / offspring survival early / birth index / live birth index
[19] = systemic / clinical chemistry / alanine aminotransferase (alt/sgpt) / alanine aminotransferase (alt/sgpt) + systemic / clinical chemistry / …
[20] = systemic / in life observation / body weight / body weight + systemic / organ weight / liver / absolute
[21] = systemic / clinical chemistry / [other] / [other] + systemic / clinical chemistry / thyroxine (t4) / thyroxine (t4), total + systemic / …
[22] = systemic / clinical chemistry / [other] / [other] + systemic / organ weight / liver / relative to body weight + systemic / clinical …
[23] = group: cholinesterase, cholinesterase / cholinesterase / cholinesterase / brain cholinesterase (che) + cholinesterase / cholinesterase / cholinesterase / …
[24] = group: systemic, systemic / pathology microscopic / intestine small / hyperplasia + systemic / in life observation / mortality / mortality + systemic / …
[25] = group: systemic, systemic / pathology microscopic / intestine small / hyperplasia + systemic / pathology microscopic / bone marrow / hyperplasia
[26] = group: cholinesterase, cholinesterase / cholinesterase / cholinesterase / plasma cholinesterase (che) + cholinesterase / cholinesterase / cholinesterase / …
[27] = group: systemic, systemic / in life observation / body weight / body weight + systemic / in life observation / body weight / body weight gain + systemic / in…
[28] = group: cholinesterase, cholinesterase / cholinesterase / cholinesterase / erythrocyte cholinesterase (che) + cholinesterase / cholinesterase / cholinesterase / …
[29] = group: reproductive, reproductive / reproductive performance / estrous cycle / abnormal
[30] = group: systemic, systemic / organ weight / liver / absolute + systemic / organ weight / liver / relative to brain weight
[31] = group: systemic, systemic / organ weight / liver / absolute + systemic / organ weight / liver / relative to brain weight + systemic / clinical chemistry / …
[32] = group: cholinesterase, cholinesterase / cholinesterase / cholinesterase / cholinesterase (che)
[33] = group: cholinesterase, cholinesterase / cholinesterase / cholinesterase / cholinesterase (che) + cholinesterase / cholinesterase / cholinesterase / brain …
[34] = group: offspring, developmental / offspring survival late / lactation index / lactation index + developmental / offspring survival late / [other] / [other] + …
[35] = group: offspring, systemic / in life observation / clinical signs / no milk in stomach
[36] = group: parental, systemic / in life observation / body weight / body weight gain + systemic / in life observation / clinical signs / hyperreflexitivity
[37] = group: reproductive, reproductive / offspring survival early / litter size / litter size
[38] = group: cholinesterase, cholinesterase / cholinesterase / cholinesterase / plasma cholinesterase (che)
[39] = group: cholinesterase, cholinesterase / cholinesterase / cholinesterase / plasma cholinesterase (che) + cholinesterase / cholinesterase / cholinesterase / brain …
[40] = group: systemic, systemic / pathology microscopic / pancreas / atrophy
[41] = group: systemic, systemic / pathology microscopic / pancreas / atrophy + systemic / pathology microscopic / pancreas / adenoma + systemic / in life …

Structure (SMILES): Clc1cc(Cl)c(Cl)cc1Cl [1,2,4,5-Tetrachlorobenzene]
- LOAEL (rat [1]; [12]): 7.1 mg/kg/day
- NOAEL (rat [1]; [12]): 2.1 mg/kg/day
- LEL (rat [1]; [13]): 2.1 mg/kg/day
- NEL (rat [1]; [13]): < 2.1 mg/kg/day
- LOAEL (rat [2]; [14]): 7.1 mg/kg/day
- NOAEL (rat [2]; [14]): 2.1 mg/kg/day
- LEL (rat [2]; [15]): 2.1 mg/kg/day
- NEL (rat [2]; [15]): < 2.1 mg/kg/day
- LEL (mouse [3]; [16]): 100 mg/kg/day
- LOAEL (mouse [3]; [16]): > 250 mg/kg/day
- NEL (mouse [3]; [16]): 40 mg/kg/day
- NOAEL (mouse [3]; [16]): ≥ 250 mg/kg/day
- NEL (mouse [3]; group: parental, systemic / in life observation / body weight / body weight + systemic / in life observation / mortality / mortality): 40 mg/kg/day
- LOAEL (mouse [3]; [17]): > 250 mg/kg/day
- NOAEL (mouse [3]; [17]): ≥ 250 mg/kg/day
- LEL (mouse [3]; group: parental, systemic / in life observation / body weight / body weight + systemic / organ weight / testes / absolute): 100 mg/kg/day
- LEL (mouse [3]; [18]): 100 mg/kg/day
- LOAEL (mouse [3]; [18]): > 250 mg/kg/day
- NEL (mouse [3]; [18]): 40 mg/kg/day
- NOAEL (mouse [3]; [18]): ≥ 250 mg/kg/day
- LOAEL (mouse [4]; [19]): > 450 mg/kg/day
- NOAEL (mouse [4]; [19]): ≥ 450 mg/kg/day
- LEL (mouse [4]; [20]): 4 mg/kg/day
- NEL (mouse [4]; [20]): < 4 mg/kg/day

Structure (SMILES): Clc1cc2oc3c(Cl)c(Cl)c(Cl)cc3c2cc1Cl [2,3,4,7,8-Pentachlorodibenzofuran]
- LOAEL (rat [5]; [21]): > 0.0002 mg/kg/day
- NOAEL (rat [5]; [21]): ≥ 0.0002 mg/kg/day
- LEL (rat [5]; [22]): 6e-06 mg/kg/day
- NEL (rat [5]; [22]): < 6e-06 mg/kg/day

Structure (SMILES): CC(=O)O.CC(=O)O.NC(=NCCCCCCN=C(N)/N=C(\N)Nc1ccc(Cl)cc1)/N=C(\N)Nc1ccc(Cl)cc1 [Chlorhexidine diacetate]
- LEL (rabbit): 250 mg/kg/day
- LOAEL (rabbit): 250 mg/kg/day
- NEL (rabbit): < 250 mg/kg/day
- NOAEL (rabbit): < 250 mg/kg/day

Structure (SMILES): CCNP(=S)(OC)O/C(C)=C/C(=O)OC(C)C (stereo not drawn) [Propetamphos]
- LEL (dog [6]): 0.083 mg/kg/day
- LOAEL (dog [6]): 0.165 mg/kg/day
- NEL (dog [6]): < 0.083 mg/kg/day
- NOAEL (dog [6]): 0.083 mg/kg/day
- LEL (mouse [7]; [23]): 1 mg/kg/day
- LOAEL (mouse [7]; [23]): 1 mg/kg/day
- NEL (mouse [7]; [23]): 0.05 mg/kg/day
- NOAEL (mouse [7]; [23]): 0.05 mg/kg/day
- NEL (mouse [7]; [24]): 1 mg/kg/day
- NOAEL (mouse [7]; [24]): 1 mg/kg/day
- LEL (mouse [7]; [25]): 6 mg/kg/day
- LOAEL (mouse [7]; [25]): 6 mg/kg/day
- LEL (mouse [8]; [26]): 1 mg/kg/day
- LOAEL (mouse [8]; [26]): 1 mg/kg/day
- NEL (mouse [8]; [26]): < 1 mg/kg/day
- NOAEL (mouse [8]; [26]): < 1 mg/kg/day
- LOAEL (mouse [8]; group: systemic, systemic / in life observation / body weight / body weight + systemic / in life observation / body weight / body weight gain): 59 mg/kg/day
- LEL (mouse [8]; [27]): 59 mg/kg/day
- NEL (mouse [8]; [27]): 28 mg/kg/day
- NOAEL (mouse [8]; [27]): 28 mg/kg/day
- LEL (dog [9]; [28]): 0.59 mg/kg/day
- LOAEL (dog [9]; [28]): 0.59 mg/kg/day
- NEL (dog [9]; [28]): 0.13 mg/kg/day
- NOAEL (dog [9]; [28]): 0.13 mg/kg/day
- LEL (dog [9]; [29]): 3.39 mg/kg/day
- LOAEL (dog [9]; [29]): > 3.39 mg/kg/day
- NEL (dog [9]; [29]): 0.67 mg/kg/day
- NOAEL (dog [9]; [29]): ≥ 3.39 mg/kg/day
- LEL (dog [9]; [30]): 0.59 mg/kg/day
- LOAEL (dog [9]; [30]): 0.59 mg/kg/day
- NEL (dog [9]; [31]): 0.13 mg/kg/day
- NOAEL (dog [9]; [31]): 0.13 mg/kg/day
- LEL (rat [10]; [32]): 2.1 mg/kg/day
- LOAEL (rat [10]; [32]): 2.1 mg/kg/day
- NEL (rat [10]; [33]): 0.3 mg/kg/day
- NOAEL (rat [10]; [33]): 0.3 mg/kg/day
- LOAEL (rat [10]; [34]): 8 mg/kg/day
- NOAEL (rat [10]; [34]): 3 mg/kg/day
- LEL (rat [10]; [35]): 0.5 mg/kg/day
- NEL (rat [10]; [35]): < 0.5 mg/kg/day
- LEL (rat [10]; group: parental, systemic / in life observation / body weight / body weight gain): 3.7 mg/kg/day
- LOAEL (rat [10]; [36]): 7.1 mg/kg/day
- NOAEL (rat [10]; [36]): 2.8 mg/kg/day
- NEL (rat [10]; group: parental, systemic / in life observation / body weight / body weight gain + systemic / in life observation / clinical signs / hyperreflexitivity + …): 0.5 mg/kg/day
- LEL (rat [10]; [37]): 0.5 mg/kg/day
- NEL (rat [10]; [37]): < 0.5 mg/kg/day
- NOAEL (rat [10]; group: reproductive, reproductive / reproductive performance / implantations / implantations + reproductive / reproductive performance / mating / mating): 3.7 mg/kg/day
- LOAEL (rat [10]; group: reproductive, reproductive / reproductive performance / implantations / implantations + reproductive / reproductive performance / mating / mating + …): 11.3 mg/kg/day
- LEL (rat [11]; [38]): 0.632 mg/kg/day
- LOAEL (rat [11]; [38]): 0.632 mg/kg/day
- NEL (rat [11]; [39]): 0.376 mg/kg/day
- NOAEL (rat [11]; [39]): 0.376 mg/kg/day
- LEL (rat [11]; [40]): 0.689 mg/kg/day
- LOAEL (rat [11]; [40]): 0.689 mg/kg/day
- NEL (rat [11]; [41]): 0.412 mg/kg/day
- NOAEL (rat [11]; [41]): 0.412 mg/kg/day
